Measured values reported in paper PMC7827406, “Structure–Activity Relationship (SAR) Study of Spautin-1 to Entail the Discovery of Novel NEK4 Inhibitors” (International Journal of Molecular Sciences, 2021).
Read-outs that look alike come from different tables or passages of the source.

How the values were obtained:
Assay in all cases: biochemical
Design in all cases: Eurofins KinaseProfiler full panel at Km ATP, residual kinase activity (%) relative to DMSO
PKCγ(h) = molecular target: T1, PKCγ(h) (Homo sapiens, UniProt P05129)
T1 construct: gene PRKCG
In short: (§1)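 Radiometric kinase activity assays were run with ATP at Km and compounds at 10 µM, and remaining activity (%) was reported. A separate competitive binding screen measured DNA-tagged kinase displaced from immobilized active-site ligands by qPCR, giving percent kinase still bound at 10 µM compound in DMSO.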

MYO3B(h) = molecular target: T2, MYO3B(h) (Homo sapiens, UniProt Q8WXR4)
T2 sequence (Q8WXR4 1-1341): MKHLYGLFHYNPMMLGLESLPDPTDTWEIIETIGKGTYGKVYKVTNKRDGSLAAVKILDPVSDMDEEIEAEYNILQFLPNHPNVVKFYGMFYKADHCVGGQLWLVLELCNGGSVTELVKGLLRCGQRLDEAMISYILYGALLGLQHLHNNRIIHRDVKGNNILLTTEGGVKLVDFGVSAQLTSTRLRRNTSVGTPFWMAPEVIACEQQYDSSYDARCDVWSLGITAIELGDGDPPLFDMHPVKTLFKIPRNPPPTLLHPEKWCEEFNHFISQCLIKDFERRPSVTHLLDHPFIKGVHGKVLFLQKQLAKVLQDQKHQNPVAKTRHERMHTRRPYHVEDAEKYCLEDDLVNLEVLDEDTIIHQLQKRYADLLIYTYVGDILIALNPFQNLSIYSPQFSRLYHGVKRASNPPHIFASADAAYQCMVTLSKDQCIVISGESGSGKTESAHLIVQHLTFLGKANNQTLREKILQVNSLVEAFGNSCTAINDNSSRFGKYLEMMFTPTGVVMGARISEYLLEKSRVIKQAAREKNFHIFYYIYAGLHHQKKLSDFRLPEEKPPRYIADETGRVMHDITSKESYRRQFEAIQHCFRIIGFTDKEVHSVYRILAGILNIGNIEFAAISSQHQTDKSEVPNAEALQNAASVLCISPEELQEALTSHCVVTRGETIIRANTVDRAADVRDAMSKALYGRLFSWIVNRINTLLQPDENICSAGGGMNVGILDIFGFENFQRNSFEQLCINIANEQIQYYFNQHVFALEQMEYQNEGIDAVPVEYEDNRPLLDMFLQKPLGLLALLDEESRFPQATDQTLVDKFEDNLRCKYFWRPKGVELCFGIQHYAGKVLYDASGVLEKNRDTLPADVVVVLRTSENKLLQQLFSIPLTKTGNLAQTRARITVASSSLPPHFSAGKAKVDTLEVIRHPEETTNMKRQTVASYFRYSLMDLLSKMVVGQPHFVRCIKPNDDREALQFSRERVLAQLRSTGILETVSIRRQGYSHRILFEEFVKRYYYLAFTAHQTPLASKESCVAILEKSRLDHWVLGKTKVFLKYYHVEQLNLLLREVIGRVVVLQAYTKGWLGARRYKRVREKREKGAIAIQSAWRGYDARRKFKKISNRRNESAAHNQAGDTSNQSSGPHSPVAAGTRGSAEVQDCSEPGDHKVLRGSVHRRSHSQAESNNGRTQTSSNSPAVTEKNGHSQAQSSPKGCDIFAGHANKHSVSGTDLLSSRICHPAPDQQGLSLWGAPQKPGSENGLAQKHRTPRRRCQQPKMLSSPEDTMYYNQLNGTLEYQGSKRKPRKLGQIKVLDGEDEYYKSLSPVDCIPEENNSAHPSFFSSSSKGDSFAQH
In short: as §1

PhKγ2(h) = molecular target: T3, PhKγ2(h) (Homo sapiens, UniProt P15735)
T3 construct: gene PHKG2
T3 sequence (P15735 1-406): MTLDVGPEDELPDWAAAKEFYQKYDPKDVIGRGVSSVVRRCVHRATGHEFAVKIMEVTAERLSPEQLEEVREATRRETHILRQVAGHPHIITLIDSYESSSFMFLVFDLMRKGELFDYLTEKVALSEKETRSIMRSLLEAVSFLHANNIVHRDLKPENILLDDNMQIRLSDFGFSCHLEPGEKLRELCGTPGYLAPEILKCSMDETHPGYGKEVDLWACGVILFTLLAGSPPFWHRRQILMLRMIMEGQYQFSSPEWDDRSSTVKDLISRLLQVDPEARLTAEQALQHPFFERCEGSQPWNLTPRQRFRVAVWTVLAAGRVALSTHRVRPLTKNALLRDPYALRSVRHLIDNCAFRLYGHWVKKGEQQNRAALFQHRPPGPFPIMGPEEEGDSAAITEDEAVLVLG
In short: as §1

PKBβ(h) = molecular target: T4, PKBβ(h) (Homo sapiens, UniProt P31751)
T4 construct: gene AKT2
T4 sequence (P31751 whole entry): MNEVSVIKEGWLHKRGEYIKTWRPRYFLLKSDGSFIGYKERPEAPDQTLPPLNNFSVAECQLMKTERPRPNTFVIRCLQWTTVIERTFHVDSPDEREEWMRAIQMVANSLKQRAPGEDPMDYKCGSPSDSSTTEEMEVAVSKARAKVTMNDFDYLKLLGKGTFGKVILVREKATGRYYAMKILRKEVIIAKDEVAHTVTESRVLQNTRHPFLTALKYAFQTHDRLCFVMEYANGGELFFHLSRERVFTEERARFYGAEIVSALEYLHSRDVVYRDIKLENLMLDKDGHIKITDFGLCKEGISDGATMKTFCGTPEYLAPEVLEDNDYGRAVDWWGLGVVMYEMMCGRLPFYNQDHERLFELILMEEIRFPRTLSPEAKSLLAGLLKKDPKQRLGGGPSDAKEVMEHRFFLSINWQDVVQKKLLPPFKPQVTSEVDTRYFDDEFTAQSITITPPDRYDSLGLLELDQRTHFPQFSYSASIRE
In short: as §1

[1] = read-out: Residual activity (%) 5ay
[2] = read-out: Residual activity (%) Spautin-1 5aa
[3] = read-out: Residual activity (%) 5at
[4] = read-out: Residual activity (%) 5as

In the case of COc1ccc2ncnc(Nc3cccc(F)c3)c2c1 [5ay, N-(3-Fluorophenyl)-6-Methoxy-4-Quinazolinamine], the remaining activity at 10 µM (PKCγ(h); [1]) is reported as 81%, the remaining activity at 10 µM (MYO3B(h); [1]) is reported as 88% and the remaining activity at 10 µM (PhKγ2(h); [1]) is reported as 109%. For the same compound, the remaining activity at 10 µM (PKBβ(h); [1]) was 106%.

For Fc1ccc(CNc2ncnc3ccc(F)cc23)cc1 [5aa, 6-Fluoro-N-(4-fluorobenzyl)-4-Quinazolinamine], the remaining activity at 10 µM (PKCγ(h); [2]) was 86%, the remaining activity at 10 µM (MYO3B(h); [2]) was 89% and the remaining activity at 10 µM (PhKγ2(h); [2]) was 78%. It also gave a remaining activity at 10 µM (PKBβ(h); [2]) of 106%.

For Fc1ccc2ncnc(NCCc3ccc(Cl)cc3)c2c1 [5at, N-[2-(4-Chlorophenyl)Ethyl]-6-Fluoro-4-Quinazolinamine], the remaining activity at 10 µM (PKCγ(h); [3]) was 72%, the remaining activity at 10 µM (MYO3B(h); [3]) was 87% and the remaining activity at 10 µM (PhKγ2(h); [3]) was 82%. It also gave a remaining activity at 10 µM (PKBβ(h); [3]) of 75%.

Compound Fc1ccc(CCNc2ncnc3ccc(F)cc23)cc1 [5as, 6-Fluoro-N-[2-(4-Fluorophenyl)Ethyl]-4-Quinazolinamine] has a remaining activity at 10 µM (PKCγ(h); [4]) of 74%, a remaining activity at 10 µM (MYO3B(h); [4]) of 84% and a remaining activity at 10 µM (PhKγ2(h); [4]) of 91%. The remaining activity at 10 µM (PKBβ(h); [4]) was 84%.
